This experiment deals with T1, m1 muscarinic receptor (Rattus norvegicus, UniProt P08482).
T1 construct: expressed in transfected cells; host or cells: A9 L cells (mouse fibroblast line)
T1 sequence (P08482 1-460): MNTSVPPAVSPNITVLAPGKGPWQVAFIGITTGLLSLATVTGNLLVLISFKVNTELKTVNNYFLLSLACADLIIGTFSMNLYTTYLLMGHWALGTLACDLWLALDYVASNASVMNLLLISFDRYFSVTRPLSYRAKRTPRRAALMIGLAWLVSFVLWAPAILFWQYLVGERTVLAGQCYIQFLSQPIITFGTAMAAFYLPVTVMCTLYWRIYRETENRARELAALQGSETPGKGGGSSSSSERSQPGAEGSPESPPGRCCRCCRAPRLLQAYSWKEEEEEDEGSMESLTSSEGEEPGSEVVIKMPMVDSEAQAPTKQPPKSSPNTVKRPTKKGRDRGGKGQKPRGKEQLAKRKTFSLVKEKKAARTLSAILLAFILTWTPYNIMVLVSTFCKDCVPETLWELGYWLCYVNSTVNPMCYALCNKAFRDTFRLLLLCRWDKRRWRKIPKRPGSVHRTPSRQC
Put plainly: IP hydrolysis in A9 L cells cloned with the genetic m1 muscarinic receptor. The settings on record: for Emax: A9L-m1, 0.75 h, read-out: % PI (efficacy); for Emax / % PI (efficacy): percentage of total [3H]IP accumulated in the presence of 100 µM carbachol stimulation, 37°C for 45 min; for EC50: IP hydrolysis, seven point curves, three separate experiments; for % PI (efficacy): 45 min. Type of experiment: cell-based, human and rat.

As usually defined, the EC50 is the midpoint of the concentration-response curve.

Structures are written as SMILES. Counter-ions that a name gives are not always drawn. Like-named read-outs stand apart in the source and are kept apart here.

Protocol: IP hydrolysis in A9 L cells cloned with the genetic m, muscarinic receptor: A9 L cells transfected with human and rat m, muscarinic receptors (Dörje et al., 1991; Jones et al., 1988), were cultured to confluence in 75-ml flasks containing Dulbecco's modified essential media. Cells were prelabeled with 1 µCi/ml of myo(2-[^3H]inositol (Amersham Inc., 16.3 Ci/mmol) for 48 hr before assaying. On the day of assay, cells were detached using a 30-sec exposure to 0.25% trypsin in 1 mM EDTA. The cells were collected by centrifugation (300 x g for 5 min) and resuspended in oxygenated HEPES buffer containing 10 mM LiCl (NaCl 142 mM, KCl 5.6 mM, CaCl2 2.2 mM, MgCl2 1 mM, NaHCO3 3.6 mM, D-glucose 5.6 mM and Na^+ HEPES 30 mM, pH 7.4). Cells were incubated at 37°C for 45 min in the presence of varying concentrations of test compounds. Total IP hydrolysis was determined using the method of Schoepp and Johnson (1988). […] Half-maximal (EC50) values were determined from the mean (±S.D.) of seven point curves determined from three separate experiments.

On to `CC(C)C(C#Cc1ccsc1)Oc1nsnc1C1CN2CCC1C2` (mixture of isomers) [Compound 16, Exo (+-) 3-(3-(1-(3-Thienyl)-4-methyl-1-pentyn-3-yloxy)-1 ,2,5-thiadiazol-4-yl)-1-azabicyclo[2.2.1]heptane, (+)-tartrate], for which the Emax was found to be 56%. Moreover, the EC50 (read-out: EC50) was 14 nM.
For `C(#Cc1ccccc1)COc1nsnc1[C@H]1CN2CC[C@@H]1C2` (racemic) [Compound 1, Endo (+-) 3-(3-(3-Phenyl-2-propyn-1-yloxy)-1,2,5-thiadiazol-4-yl)-1-azabicyclo[2 2.1]heptane,(+)--tartrate], in that order: 80% and 210 nM.
For `Fc1ccc(C#CCOc2nsnc2[C@H]2CN3CC[C@@H]2C3)cc1` (racemic) [Compound 2, Endo (+-) 3-(3-(3-(4-Fluorophenyl)-2-propyn-1-yloxy)-1,2,5-thiadiazol-4-yl)-1-azabicyclo[2.2.1]heptane,(+)-tartrate], in that order: 74% and 1800 nM.
The corresponding values for `C(#Cc1ccccc1)COc1nsnc1C1CN2CCC1C2` (racemic) [Compound 13, Exo (+-) 3-(3-(3-Phenyl-2-propyn-1-yloxy)-1.2.5-thiadlazol-4-yl)-1-azabicyclo[2 2.1]heptane, (+)-tartrate] are 100% and 0.7 nM.
On to `C(#Cc1ccccc1)COc1nsnc1C1CN2CCC1CC2` (racemic) [Compound 53, (+-)3-(3-(3-Phenyl-2-propyn-1-yloxy)-1,2,5-thiadiazol-4-yl)-1-azabicyclo[2.2.2]octane, oxalate], for which the response (EC50, nM) was half-maximal at 13 nM (EC50).
In the case of `Fc1ccc(C#CCOc2nsnc2C2CN3CCC2CC3)cc1` (racemic) [Compound 54, (+-) 3-(3-(3-(4-Fluorophenyl)-2-propyn-1-yloxy)-1,2,5-thiadiazol-4-yl)-1-azabicyclo[2.2.2]octane, oxalate], the EC50 (read-out: EC50) was determined as 224 nM.
For `Fc1ccc(C#CCOc2nsnc2[C@H]2CN3CC[C@@H]2C3)cc1` (single isomer, unassigned) [Compound 3, Endo (α)-3-(3-(3-(4-Fluorophenyl)-2-propyn-1-yloxy)-1.2.5-thiadiazol-4-yl)-1-azabicyclo[2.2.1]heptane.(+)-tartrate], the Emax was determined as 81%. Further, the EC50 (read-out: EC50) turned out to be 95 nM.
In the case of `C(#Cc1ccccc1)COc1nsnc1[C@H]1CN2CC[C@@H]1C2` (single isomer, unassigned) [Compound 4, Endo (α)-3-(3-(3-Phenyl-2-propyn-1-yloxy)-1,2,5-thiadiazol-4-yl)-1-azabicyclo[2.2.1]heptane, (+)-tartrate], the “% PI (efficacy)” value turned out to be 77%. The EC50 (read-out: EC50) is 159 nM.
The corresponding values for `COc1cccc(C#CCOc2nsnc2[C@H]2CN3CC[C@@H]2C3)c1` (single isomer, unassigned) [Compound 5, Endo (α)-3-(3-(3-(3-Methoxyphenyl)-2-propyn-1-yloxy)-1,2,5-thiadiazol-4-yl)-1-azabicyclo[2.2.1]heptane, (+)-tartrate] are 73% and 42 nM.
For `C(#Cc1ccsc1)COc1nsnc1[C@H]1CN2CC[C@@H]1C2` (single isomer, unassigned) [Compound 7, Endo (α)-3-(3-[3-(3-Thienyl)-2-propyn-1-yloxy]-1,2,5-thiadiazol-4-yl)-1-azabicyclo[2.2 1]heptane, (+)-tartrate], the Emax was determined as 108%. In addition, the EC50 (read-out: EC50) amounted to 380 nM.
The corresponding values for `C(#Cc1cccs1)COc1nsnc1[C@H]1CN2CC[C@@H]1C2` (single isomer, unassigned) [Compound 8, Endo (α)-3-(3-(3-(2-Thienyl)-2-propyn-1-yloxy)-1,2,5-thiadiazol-4-yl)-1-azabicyclo[2 2 1]heptane. (+)-tartrate] are 91% and 670 nM.
On to `Fc1ccc(C#CCOc2nsnc2[C@H]2CN3CC[C@@H]2C3)cc1` (single isomer, unassigned) [Compound 9, Endo (β)-3-(3-(3-(4-Fluorophenyl)-2-propyn-1-yloxy)-1.2.5-thiadiazol-4-yl)-1-azabicyclo[2 2.1]heptane, (-)-tartrate], for which the “% PI (efficacy)” value is 68%. The EC50 (read-out: EC50) is 38 nM.
`COc1cccc(C#CCOc2nsnc2[C@H]2CN3CC[C@@H]2C3)c1` (single isomer, unassigned) [Compound 10, Endo (β)-3-(3-(3-(3-Methoxyphenyl)-2-propyn-1-yloxy)-1,2,5-thiadiazol-4-yl)-1-azabicyclo[2.2.1]heptane, (-)-tartrate]: the Emax was determined as 57%. Besides, under “read-out: EC50”, the EC50 is 75 nM.
For `C(#Cc1ccccc1)COc1nsnc1[C@H]1CN2CC[C@@H]1C2` (single isomer, unassigned) [Compound 11, Endo (β)-3-(3-(3-Phenyl-2-propyn-1-yloxy)-1,2,5-thiadiazol-4-yl)-1-azabicyclo[2.2.1]heptane, (+)-tartrate], in that order: 64% and 98 nM.
The corresponding values for `C(#Cc1ccccc1)CSc1nsnc1[C@@H]1CN2CCC[C@H]1C2` [Compound 20, Endo (5R,6S)-6-(3-(3-Phenyl-2-propyn-1-ylthio)-1,2,5-thiadiazol-4-yl)-1-azabicyclo[3,2 1]octane, (+)-tartrate] are 98% and 1 nM.
The corresponding values for `Fc1cccc(C#CCSc2nsnc2[C@@H]2CN3CCC[C@H]2C3)c1` [Compound 21, Endo (5R,6S)-6-(3-(3-(3-Fluorophenyl)-2-propyn-1-ylthio)-1,2,5-thiadiazol-4-yl)-1-azabicyclo[3.2.1]octane, (+)-tartrate] are 67% and 105 nM.
For the compound `C(#Cc1ccsc1)CSc1nsnc1[C@@H]1CN2CCC[C@H]1C2` [Compound 24, Endo (5R,6S)-6-(3-(3-(3-Thienyl)-2-propyn-1-ylthio)-1,2,5-thiadiazol-4-yl)-1-azabicyclo[3.2.1]octane, (+)-tartrate], the Emax turned out to be 105%. Further, where the note is “read-out: EC50”, the EC50 was 300 nM.
In the case of `C(#Cc1cccs1)CSc1nsnc1[C@@H]1CN2CCC[C@H]1C2` [Compound 25, Endo (5R,6S)-6-(3-(3-(2-Thienyl)-2-propyn-1-ylthio)-1,2,5-thiadiazol-4-yl)-1-azabicyclo[3.2.1]octane, (+)-tartrate], the Emax is 69%. For the same compound, where the note is “read-out: EC50”, the EC50 came out at 210 nM.
The corresponding values for `C(#Cc1ccccc1)COc1nsnc1[C@@H]1CN2CCC[C@H]1C2` [Compound 26, Endo (5R,6S)-6-(3-(3-Phenyl-2-propyn-1-yloxy)-1,2,5-thiadiazol-4-yl)-1-azabicyclo[3 2 1]octane, (+)-tartrate] are 93% and 280 nM.
The corresponding values for `Fc1ccc(C#CCOc2nsnc2[C@@H]2CN3CCC[C@H]2C3)cc1` [Compound 27, Endo (5R,6S)-6-(3-(3-(4-Fluorophenyl)-2-propyn-1-yloxy)-1,2,5-thiadiazol-4-yl)-1-azabicyclo[3.2.1]octane, (+)-tartrate] are 79% and 187 nM.
The corresponding values for `COc1cccc(C#CCOc2nsnc2[C@@H]2CN3CCC[C@H]2C3)c1` [Compound 28, Endo (5R,6S)-6-(3-(3-(3-Methoxyphenyl)-2-propyn-1-yloxy)-1,2,5-thiadiazol-4-yl)-1-azabicyclo[3.2.1]octane, (+)-tartrate] are 97% and 22 nM.

These data come from patent publication EP0977755B1, “HETEROCYCLIC COMPOUNDS AND THEIR PREPARATION AND USE” (NOVO NORDISK A/S, priority 1997, dated 1998).
